From patent publication US20240190851A1, “FURAN FUSED RING-SUBSTITUTED GLUTARIMIDE COMPOUND” (MEDSHINE DISCOVERY INC., priority 2021, published 2024)
Where a name gives a salt, the structure may show the parent alone.

Target: T1, AR F876L (Homo sapiens, UniProt P10275, F877L)
T1 construct: expressed in transfected cells; host or cells: 293T AR F876L
T1 sequence (P10275 1-920 F877L): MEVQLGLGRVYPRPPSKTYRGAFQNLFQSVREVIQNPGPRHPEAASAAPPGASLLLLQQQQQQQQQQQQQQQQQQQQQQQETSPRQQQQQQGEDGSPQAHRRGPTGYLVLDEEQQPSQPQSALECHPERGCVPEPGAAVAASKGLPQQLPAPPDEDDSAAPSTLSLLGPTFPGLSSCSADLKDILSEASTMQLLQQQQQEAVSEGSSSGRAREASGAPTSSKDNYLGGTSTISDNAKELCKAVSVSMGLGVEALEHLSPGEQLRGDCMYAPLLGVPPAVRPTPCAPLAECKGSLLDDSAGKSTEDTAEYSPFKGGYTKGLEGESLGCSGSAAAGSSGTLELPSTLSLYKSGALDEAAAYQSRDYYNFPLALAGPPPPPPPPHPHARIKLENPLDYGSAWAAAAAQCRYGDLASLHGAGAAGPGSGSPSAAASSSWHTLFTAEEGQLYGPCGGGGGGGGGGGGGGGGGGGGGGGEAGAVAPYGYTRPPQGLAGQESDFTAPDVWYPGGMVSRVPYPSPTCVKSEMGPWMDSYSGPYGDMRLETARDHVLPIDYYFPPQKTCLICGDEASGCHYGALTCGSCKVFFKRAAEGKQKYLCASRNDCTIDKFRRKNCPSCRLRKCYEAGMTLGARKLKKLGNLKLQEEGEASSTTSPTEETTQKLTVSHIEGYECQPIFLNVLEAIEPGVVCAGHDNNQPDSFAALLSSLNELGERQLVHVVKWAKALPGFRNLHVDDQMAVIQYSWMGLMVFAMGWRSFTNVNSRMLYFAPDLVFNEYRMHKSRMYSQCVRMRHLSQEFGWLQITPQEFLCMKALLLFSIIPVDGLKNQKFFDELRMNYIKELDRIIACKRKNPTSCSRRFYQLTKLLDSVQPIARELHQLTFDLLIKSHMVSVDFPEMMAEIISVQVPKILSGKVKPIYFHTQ
Experiment: In cell western of AR protein in 293T AR F876L cells
Format: cell-based
Conditions: AR degradation, 48 hours
Protocol: Experimental purpose: In this experiment, the effects of compounds WX015, WX016, and WX017 on the expression level of AR protein with point mutation in cell line 293T AR F876L were detected by in cell western assay to evaluate the degradation effect of compounds on proteins with AR F876L point mutation.
The cell line was cultured in a 37° C., 5% CO2 incubator. Regular passage, and cells in logarithmic growth phase were taken for plating.
2. Cell Plating: • 1) Cells were stained with trypan blue and viable cells were counted. • 2) The cell concentration was adjusted to an appropriate concentration with a density of 20000/well. • 3) 90 μL of cell suspension per well was added to a 96-well culture plate, and cell-free culture medium was added to the blank control well. • 4) The culture plate was cultured overnight in a 37° C., 5% CO2 incubator with 100% relative humidity.
3. […]
Relative quantification of the density intensity of immunoblot chemiluminescence bands was performed using Image Studio Ver 5.2 software.

DC50: 43 nM
Dmax (HEK-293T): 85%
Structure (SMILES): N#Cc1ccc(O[C@H]2CC[C@H](NC(=O)c3ccc(N4CCC(CN5CCN(c6cccc7c6ccc6occ(C8CCC(=O)NC8=O)c67)CC5)CC4)nn3)CC2)cc1Cl (some centres unmarked) [Hydrochloride of WX015]
